According to US8829167B2, “Foliamangiferosides, preparation method and use thereof” (Tianjin University of Traditional Chinese Medicine, priority 2009, dated 2014):

Molecular target: T1, α-glucosidase derived from rat intestines (Rattus norvegicus, UniProt P23739)
T1 construct: The brush border membrane is scraped; from tissue; host or cells: Wistar male rat jejunum, brush border membrane (crude preparation)
Assay: α-glucosidase inhibiting activity (sucrose hydrolysis by rat intestinal brush border crude enzyme, glucose assay kit)
Format: biochemical
Settings: for inhibition of the conversion of sucrose into glucose under the catalysis of α-glucosidase in intestines (in words): in vitro; for Inhibition ratio: sucrose substrate, 37° C., 30 min
Experimental: The research process of α-glucosidase inhibiting activity: A Wistar male rat (body weight: about 200 g) is sacrificed by decapitation. The jejunum is taken out. The brush border membrane is scraped and then mixed into 0.1 M maleic acid buffer solution (pH 6.0). The mixture is used as α-glucosidase crude enzyme. 50 uL of sample solution dissolved in 2.5% DMSO is added into 100 uL of […] sucrosebase solution, into which 50 uL of the α-glucosidase solution derived from rat intestines is added. The mixture is reacted for 30 minutes at 37° C. before adding 800 uL of water and placing into boiling water bath for 2 minutes to be inactivated. The amount of the glucose produced is assayed with glucose assay kits.
Preparation of Sample Solution Group
0.1 M of maleic acid aqueous solution is mixed with 0.1 M of sodium maleate aqueous solution. The mixture is adjusted to pH 6.0 and is used as 0.1 M of maleic acid buffer solution. A sample is dissolved into DMSO solution and diluted 10 times with 0.1 M of maleic acid buffer solution. A sample solution is obtained and ready to use.
Sample group: The group in which a sample is added according to the experimental procedure described above (the samples are foliamangiferoside A (obtained in example 1) and foliamangiferoside B (obtained in example 2)); Control group: The group in which 2.5% DMSO solution is added according to the experimental procedure described above; Blank group: The type and amount of the agents are the same with those in sample group except that 800 uL of water is added immediately after 50 uL of the α-glucosidase solution derived from rat intestines is added, then the mixture is placed into a boiling water bath for 2 minutes to conduct inactivation. Furthermore, the similar experiments are conducted with ethanolic extracts of mango leaves (the product obtained in step 1 of example 1).
The following equation is used to calculate the inhibition ratio (%): inhibition ratio (%)=(A−B)/(A−C)*100
wherein, A is the absorbance of control group, B is the absorbance of sample group and C is the absorbance of blank group.

T1 sequence (P23739 whole entry): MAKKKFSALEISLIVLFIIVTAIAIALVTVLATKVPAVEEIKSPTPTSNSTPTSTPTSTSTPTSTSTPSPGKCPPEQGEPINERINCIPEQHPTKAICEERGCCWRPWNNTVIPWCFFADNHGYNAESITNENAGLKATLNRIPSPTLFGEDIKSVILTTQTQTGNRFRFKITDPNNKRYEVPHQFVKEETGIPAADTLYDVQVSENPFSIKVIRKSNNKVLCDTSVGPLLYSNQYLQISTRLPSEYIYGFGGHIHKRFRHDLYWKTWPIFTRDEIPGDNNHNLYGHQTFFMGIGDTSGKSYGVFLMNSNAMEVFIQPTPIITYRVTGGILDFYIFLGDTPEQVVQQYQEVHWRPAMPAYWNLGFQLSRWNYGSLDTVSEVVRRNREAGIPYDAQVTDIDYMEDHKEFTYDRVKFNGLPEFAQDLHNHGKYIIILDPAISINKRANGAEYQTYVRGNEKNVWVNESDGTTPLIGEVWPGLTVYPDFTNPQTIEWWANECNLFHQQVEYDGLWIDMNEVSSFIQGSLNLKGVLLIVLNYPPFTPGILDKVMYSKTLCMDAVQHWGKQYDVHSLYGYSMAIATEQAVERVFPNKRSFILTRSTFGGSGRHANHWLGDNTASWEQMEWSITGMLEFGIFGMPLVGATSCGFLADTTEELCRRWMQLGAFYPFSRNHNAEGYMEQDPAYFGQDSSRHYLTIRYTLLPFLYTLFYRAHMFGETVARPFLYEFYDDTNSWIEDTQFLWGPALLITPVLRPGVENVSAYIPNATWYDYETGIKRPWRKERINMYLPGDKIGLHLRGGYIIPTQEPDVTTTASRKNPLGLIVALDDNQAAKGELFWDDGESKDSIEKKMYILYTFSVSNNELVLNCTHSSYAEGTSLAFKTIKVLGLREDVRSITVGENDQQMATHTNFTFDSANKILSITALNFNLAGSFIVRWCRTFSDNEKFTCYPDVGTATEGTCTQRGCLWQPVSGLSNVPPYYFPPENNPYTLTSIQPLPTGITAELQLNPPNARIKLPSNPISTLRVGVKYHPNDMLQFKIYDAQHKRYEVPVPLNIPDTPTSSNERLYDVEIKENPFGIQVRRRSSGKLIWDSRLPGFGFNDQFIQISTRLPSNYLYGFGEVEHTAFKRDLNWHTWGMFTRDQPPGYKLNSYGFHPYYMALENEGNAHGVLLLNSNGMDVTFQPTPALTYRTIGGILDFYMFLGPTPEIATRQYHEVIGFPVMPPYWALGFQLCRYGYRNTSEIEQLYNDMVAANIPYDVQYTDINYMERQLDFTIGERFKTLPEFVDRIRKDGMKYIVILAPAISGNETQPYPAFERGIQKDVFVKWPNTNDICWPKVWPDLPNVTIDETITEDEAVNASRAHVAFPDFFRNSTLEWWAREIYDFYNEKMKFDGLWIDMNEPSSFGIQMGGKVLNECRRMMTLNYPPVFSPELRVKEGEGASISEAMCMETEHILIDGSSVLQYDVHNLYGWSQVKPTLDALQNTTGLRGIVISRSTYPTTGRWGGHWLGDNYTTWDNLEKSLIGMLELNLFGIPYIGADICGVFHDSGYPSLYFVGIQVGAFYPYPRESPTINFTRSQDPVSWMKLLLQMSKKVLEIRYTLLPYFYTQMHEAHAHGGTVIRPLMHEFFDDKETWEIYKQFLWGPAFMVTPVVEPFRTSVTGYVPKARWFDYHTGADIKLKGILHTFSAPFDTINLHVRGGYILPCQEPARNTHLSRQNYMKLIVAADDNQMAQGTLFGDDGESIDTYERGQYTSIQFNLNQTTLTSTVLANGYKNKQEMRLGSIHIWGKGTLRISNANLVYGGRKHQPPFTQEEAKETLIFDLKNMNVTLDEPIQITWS

| inhibition of the conversion of sucrose into glucose under the catalysis of α-glucosidase in intestines (in words) | Sample group Conc. of glucose hydrolyzed (sample 50 uM) | Inhibition ratio (sample 50 uM) | Sample group Conc. of glucose hydrolyzed (sample 100 uM) | Inhibition ratio (sample 100 uM) | Sample group Conc. of glucose hydrolyzed (sample 200 uM) | Inhibition ratio (sample 200 uM) | Sample group Conc. of glucose hydrolyzed (sample 400 uM) | Inhibition ratio (sample 400 uM) | Inhibition ratio (sample 400 uM, listed as foliamangiferoside B) | Inhibition ratio (sample 400 uM, listed as foliamangiferoside A) | SMILES |
| --- | --- | --- | --- | --- | --- | --- | --- | --- | --- | --- | --- |
| can effectively inhibit | 5.23 mg/dL | 19.6% | 4.64 mg/dL | 23.9% | 4.12 mg/dL | 29.6% | 3.71 mg/dL | 45.6% | 45.6% |  | COc1cc(C(=O)c2c(O)cc(OC)c([C@@H]3OC(CO)[C@@H](O)C(O)C3O)c2O)ccc1O (some centres unmarked) [Foliamangiferoside B, foliamangiferoside B] |
| can effectively inhibit | 5.23 mg/dL | 15.8% | 4.64 mg/dL | 20.2% | 4.12 mg/dL | 26.2% | 3.09 mg/dL | 58.2% |  | 58.2% | COc1cc(O)c(C(=O)c2ccc(O)cc2)c(O)c1[C@@H]1O[C@H](CO)[C@@H](O)[C@H](O)[C@H]1O [Foliamangiferoside A, foliamangiferoside A] |
